Assay results reported in patent US9253983B2, “Triazole compound and use thereof” (KUREHA CORPORATION, priority 2011, dated 2016).

How the values were obtained:
[1] = system: Rhizopus oryzae; assay: Test 1 for antifungal effect, plate medium: R.o; assay type: cell-based; conditions: PDA plate medium
Method: (§1) Compound (1-1a) or Compound (1-2a) was dissolved in dimethyl sulfoxide, and the resulting solution was added to a PDA medium (potato dextrose-agar medium) at about 60° C. The medium and the solution were mixed thoroughly in a conical flask, poured into a petri dish, and allowed to solidify. In this way, a plate medium containing Compound (1-1a) or Compound (1-2a) at a certain concentration was prepared.
(§2) Meanwhile, test microorganisms cultured on a plate medium in advance were cut out with the use of a cork borer 4 mm in diameter, and were inoculated onto the compound-containing plate medium. After the inoculation, the microorganisms were cultured at their optimum growth temperatures (for example, refer to LIST OF CULTURES 1996 microorganisms 10th edition, Institute for Fermentation (foundation)) for 1 day to 7 days, and their growth was determined by measuring the diameter of their flora. The extent of growth of the microorganisms on the compound-containing plate medium was compared with that of microorganisms on a plate medium where no compound was added, and mycelial growth inhibition rate was calculated by the following equation: R=100(dc−dt)/dc where R is mycelial growth inhibition rate (%), dc is the flora diameter in untreated plate, and dt is the flora diameter in plate treated with the compound.
(§3) A larger antifungal index indicates a better antifungal effect.

[2] = system: wheat; assay: Necrosis (adverse effects) of seed treatment on wheat seeds; assay type: in vivo; conditions: 20 days after sowing
Method: A pot experiment was performed to evaluate necrosis (adverse effects) caused by the seed treatment. Compound (1-1a) and Compound (1-2a), each which was dissolved in DMSO to make up such a concentration that the seeds would be treated in treatment amount of 2 g to 200 g ai/100 kg seeds, were each applied to wheat seeds in a vial, and thereafter 8 wheat seeds were sowed in an 80-cm^2 pot. The pot was kept in a greenhouse with water supplied to its bottom. 20 days after the sowing, an extent of necrosis (percentage of necrotic surface area) of wheat was evaluated. A necrosis index was derived from the percentage of the necrotic surface area, based on the criteria shown by Table 13. In Table 13, a smaller necrosis index indicates a lesser adverse effect of necrosis caused by the treatment with the use of a plant disease controlling agent.

[3] = system: wheat; assay: Growth inhibition (adverse effects) of seed treatment on wheat seeds; assay type: in vivo; conditions: for Growth inhibition index: wheat, 20 days after sowing
Method: A pot experiment was performed to evaluate the growth inhibition (adverse effects) caused by the seed treatment. Compound (1-1a) and Compound (1-2a), each of which was dissolved in DMSO to make up such a concentration that the seeds would be treated in treatment amount of 2 g to 200 g ai/100 kg seeds, were each applied to wheat seeds in a vial, and thereafter 8 wheat seeds were sowed in an 80-cm^2 pot. The pot was kept in a greenhouse with water supplied to its bottom. 20 days after the sowing, a growth measure of wheat was evaluated. A growth inhibition index was calculated based on the criteria shown by Table 10. In Table 10, a smaller growth inhibition index indicates a lesser adverse effect of growth inhibition caused by the treatment with the use of a plant disease controlling agent.

[4] = system: Septoria tritici; assay: Test 2 for antifungal effect, plate medium: S.t; assay type: cell-based; conditions: PDA plate medium
Method: as §1, with “(1-1b)” for “(1-1a)”, “(1-2b)” for “(1-2a)”
(§4) Meanwhile, test microorganisms cultured on a plate medium in advance were cut out with the use of a cork borer 4 mm in diameter, and were inoculated onto the compound-containing plate medium. After the inoculation, the pathogens were cultured at their optimum growth temperatures (for example, refer to LIST OF CULTURES 1996 microorganisms 10th edition, Institute for Fermentation (foundation)) for 1 day to 7 days, and their growth was determined by measuring the diameter of their flora. The extent of growth of the pathogens on the compound-containing plate medium was compared with that of pathogens on a plate medium where no compound was added, and mycelial growth inhibition rate was calculated as in Experiment Example 10. Note that, in Experiment Example 11, controls used in the antifungal effect tests are Compound (1-1a) and Compound (1-2a) instead of Compound (1-1b) and Compound (1-2b), respectively.
(§5) The results were rated on a 1-to-5 scale as in Experiment Example 10.

[5] = system: Botrytis cinerea; assay: Controlling effect on cucumber gray mold by foliage spray treatment (Tests 1 and 2); assay type: in vivo; conditions: four days after inoculation
Method: The cucumber plants had been grown in square plastic pots (6 cm×6 cm). After the suspension was then left to dry, paper discs (8 mm in diameter) impregnated with a spore suspension of Botrytis cinerea w ere placed on the leaves, and the plants were kept at 20° C. in a high humidity environment. Four days after inoculation, the lesion degree of the cucumber gray mold was examined in accordance with the criteria shown in Table 1, and the protective values were calculated by the following equation: Protective value (%)=(1−Average lesion degree in sprayed plot/Average lesion degree in unsprayed plot)×100.
The cucumber plants had been grown in square plastic pots (6 cm×6 cm). After the leaves were air-dried, paper discs (8 mm in diameter) impregnated with a spore suspension of cucumber graymold-causing microorganisms were placed on the leaves, and the plants were kept at 20° C. in a high humidity environment. 4 days after the inoculation, the lesion degree of the cucumber gray mold was examined, and the protective values were calculated as were in Experiment Example 1.

[6] = system: Microdochium nivale; assay: Test 1 for antifungal effect, plate medium: M.n; assay type: cell-based; conditions: PDA plate medium
Method: as §1, §2, §3

[7] = system: Fusarium oxysporum; assay: Test 2 for antifungal effect, plate medium: F.c; assay type: cell-based; conditions: PDA plate medium
Method: as §1, with “(1-1b)” for “(1-1a)”, “(1-2b)” for “(1-2a)”
as §4, §5

[8] = system: Botrytis cinerea; assay: Test 1 for antifungal effect, plate medium: B.c; assay type: cell-based; conditions: PDA plate medium
Method: as §1, §2, §3

[9] = system: Pyrenophora graminea; assay: Test 2 for antifungal effect, plate medium: P.g; assay type: cell-based; conditions: PDA plate medium
Method: as §1, with “(1-1b)” for “(1-1a)”, “(1-2b)” for “(1-2a)”
as §4, §5

[10] = treatment amount 2 g ai/100 kg seeds
[11] = treatment amount 20 g ai/100 kg seeds
[12] = treatment amount 200 g ai/100 kg seeds
[13] = foliage spray 3.1 mg/L, 1,000 L/ha
[14] = foliage spray 12.5 mg/L, 1,000 L/ha

## CC1(CCl)CCC(Cc2ccc(F)cc2)C1(O)Cn1cncn1 (single isomer, unassigned) [Compound (1-2a), (1,2-cis, 1,5-cis)-5-(4-fluorobenzyl)-2-chloromethyl-2-methyl-1-(1H-1,2,4-triazole-1-ylmethyl)cyclopentanol]
[1]; 0.16 mg/L
  Antifungal index (mycelial growth inhibition rate): 1 (Less than 60%)
[1]; 0.31 mg/L
  Antifungal index (mycelial growth inhibition rate): 1 (Less than 60%)
[1]; 0.63 mg/L
  Antifungal index (mycelial growth inhibition rate): 3 (Less than 80% but not less than 70%)
[1]; 1.25 mg/L
  Antifungal index (mycelial growth inhibition rate): 5 (90% or greater)
[1]; 2.50 mg/L
  Antifungal index (mycelial growth inhibition rate): 5 (90% or greater)
[2]; [10]
  Necrosis index: 0 (Less than 1%)
[2]; [11]
  Necrosis index: 0 (Less than 1%)
[2]; [12]
  Necrosis index: 0 (Less than 1%)
[3]; [10]
  Growth inhibition index: 0 (50% or more)
[3]; [11]
  Growth inhibition index: 0 (50% or more)
[3]; [12]
  Growth inhibition index: 2 (Less than 40% but 30% or more)
[4]; 0.04 mg/L
  Antifungal index (mycelial growth inhibition rate): 1 (Less than 60%)
[4]; 0.08 mg/L
  Antifungal index (mycelial growth inhibition rate): 1 (Less than 60%)
[4]; 0.16 mg/L
  Antifungal index (mycelial growth inhibition rate): 1 (Less than 60%)
[4]; 0.31 mg/L
  Antifungal index (mycelial growth inhibition rate): 1 (Less than 60%)
[4]; 0.63 mg/L
  Antifungal index (mycelial growth inhibition rate): 1 (Less than 60%)
[4]; 1.25 mg/L
  Antifungal index (mycelial growth inhibition rate): 3 (Less than 80% but not less than 70%)
[5]; [13]
  Protective value (%): 40%
[5]; [14]
  Protective value (%): 100%
[6]; 0.16 mg/L
  Antifungal index (mycelial growth inhibition rate): 1 (Less than 60%)
[6]; 0.31 mg/L
  Antifungal index (mycelial growth inhibition rate): 1 (Less than 60%)
[6]; 0.63 mg/L
  Antifungal index (mycelial growth inhibition rate): 2 (Less than 70% but not less than 60%)
[6]; 1.25 mg/L
  Antifungal index (mycelial growth inhibition rate): 3 (Less than 80% but not less than 70%)
[6]; 2.50 mg/L
  Antifungal index (mycelial growth inhibition rate): 5 (90% or greater)
[7]; 0.04 mg/L
  Antifungal index (mycelial growth inhibition rate): 1 (Less than 60%)
[7]; 0.08 mg/L
  Antifungal index (mycelial growth inhibition rate): 1 (Less than 60%)
[7]; 0.16 mg/L
  Antifungal index (mycelial growth inhibition rate): 2 (Less than 70% but not less than 60%)
[7]; 0.31 mg/L
  Antifungal index (mycelial growth inhibition rate): 3 (Less than 80% but not less than 70%)
[7]; 0.63 mg/L
  Antifungal index (mycelial growth inhibition rate): 4 (Less than 90% but not less than 80%)
[7]; 1.25 mg/L
  Antifungal index (mycelial growth inhibition rate): 5 (90% or greater)
[8]; 0.16 mg/L
  Antifungal index (mycelial growth inhibition rate): 3 (Less than 80% but not less than 70%)
[8]; 0.31 mg/L
  Antifungal index (mycelial growth inhibition rate): 5 (90% or greater)
[8]; 0.63 mg/L
  Antifungal index (mycelial growth inhibition rate): 5 (90% or greater)
[8]; 1.25 mg/L
  Antifungal index (mycelial growth inhibition rate): 5 (90% or greater)
[8]; 2.50 mg/L
  Antifungal index (mycelial growth inhibition rate): 5 (90% or greater)
[9]; 0.04 mg/L
  Antifungal index (mycelial growth inhibition rate): 1 (Less than 60%)
[9]; 0.08 mg/L
  Antifungal index (mycelial growth inhibition rate): 2 (Less than 70% but not less than 60%)
[9]; 0.16 mg/L
  Antifungal index (mycelial growth inhibition rate): 4 (Less than 90% but not less than 80%)
[9]; 0.31 mg/L
  Antifungal index (mycelial growth inhibition rate): 5 (90% or greater)
[9]; 0.63 mg/L
  Antifungal index (mycelial growth inhibition rate): 5 (90% or greater)
[9]; 1.25 mg/L
  Antifungal index (mycelial growth inhibition rate): 5 (90% or greater)

## CC1(CCl)CCC(Cc2ccc(F)cc2)C1(O)Cn1cncn1 (single isomer, unassigned) [Compound (1-2b), (1,2-cis, 1,5-cis)-5-(4-fluorobenzyl)-2-chloromethyl-2-methyl-1-(1H-1,2,4-triazole-1-ylmethyl)cyclopentanol]
[1]; 0.16 mg/L
  Antifungal index (mycelial growth inhibition rate): 1 (Less than 60%)
[1]; 0.31 mg/L
  Antifungal index (mycelial growth inhibition rate): 1 (Less than 60%)
[1]; 0.63 mg/L
  Antifungal index (mycelial growth inhibition rate): 1 (Less than 60%)
[1]; 1.25 mg/L
  Antifungal index (mycelial growth inhibition rate): 1 (Less than 60%)
[1]; 2.50 mg/L
  Antifungal index (mycelial growth inhibition rate): 2 (Less than 70% but not less than 60%)
[2]; [10]
  Necrosis index: 0 (Less than 1%)
[2]; [11]
  Necrosis index: 3 (20% or more)
[2]; [12]
  Necrosis index: 3 (20% or more)
[3]; wheat seed treatment 20 g ai/100 kg seeds (seen in the brown rust seed treatment test)
  Growth of the treated seeds: inhibited
[3]; [10]
  Growth inhibition index: 0 (50% or more)
[3]; [11]
  Growth inhibition index: 4 (Less than 20% but 10% or more)
[3]; [12]
  Growth inhibition index: 5 (Less than 10%)
[4]; 0.04 mg/L
  Antifungal index (mycelial growth inhibition rate): 2 (Less than 70% but not less than 60%)
[4]; 0.08 mg/L
  Antifungal index (mycelial growth inhibition rate): 5 (90% or greater)
[4]; 0.16 mg/L
  Antifungal index (mycelial growth inhibition rate): 5 (90% or greater)
[4]; 0.31 mg/L
  Antifungal index (mycelial growth inhibition rate): 5 (90% or greater)
[4]; 0.63 mg/L
  Antifungal index (mycelial growth inhibition rate): 5 (90% or greater)
[4]; 1.25 mg/L
  Antifungal index (mycelial growth inhibition rate): 5 (90% or greater)
[5]; [13]
  Protective value (%): 15%
[5]; [14]
  Protective value (%): 98%
[6]; 0.16 mg/L
  Antifungal index (mycelial growth inhibition rate): 1 (Less than 60%)
[6]; 0.31 mg/L
  Antifungal index (mycelial growth inhibition rate): 1 (Less than 60%)
[6]; 0.63 mg/L
  Antifungal index (mycelial growth inhibition rate): 1 (Less than 60%)
[6]; 1.25 mg/L
  Antifungal index (mycelial growth inhibition rate): 1 (Less than 60%)
[6]; 2.50 mg/L
  Antifungal index (mycelial growth inhibition rate): 2 (Less than 70% but not less than 60%)
[7]; 0.04 mg/L
  Antifungal index (mycelial growth inhibition rate): 1 (Less than 60%)
[7]; 0.08 mg/L
  Antifungal index (mycelial growth inhibition rate): 2 (Less than 70% but not less than 60%)
[7]; 0.16 mg/L
  Antifungal index (mycelial growth inhibition rate): 3 (Less than 80% but not less than 70%)
[7]; 0.31 mg/L
  Antifungal index (mycelial growth inhibition rate): 4 (Less than 90% but not less than 80%)
[7]; 0.63 mg/L
  Antifungal index (mycelial growth inhibition rate): 5 (90% or greater)
[7]; 1.25 mg/L
  Antifungal index (mycelial growth inhibition rate): 5 (90% or greater)
[8]; 0.16 mg/L
  Antifungal index (mycelial growth inhibition rate): 1 (Less than 60%)
[8]; 0.31 mg/L
  Antifungal index (mycelial growth inhibition rate): 3 (Less than 80% but not less than 70%)
[8]; 0.63 mg/L
  Antifungal index (mycelial growth inhibition rate): 5 (90% or greater)
[8]; 1.25 mg/L
  Antifungal index (mycelial growth inhibition rate): 5 (90% or greater)
[8]; 2.50 mg/L
  Antifungal index (mycelial growth inhibition rate): 5 (90% or greater)
[9]; 0.04 mg/L
  Antifungal index (mycelial growth inhibition rate): 4 (Less than 90% but not less than 80%)
[9]; 0.08 mg/L
  Antifungal index (mycelial growth inhibition rate): 5 (90% or greater)
[9]; 0.16 mg/L
  Antifungal index (mycelial growth inhibition rate): 5 (90% or greater)
[9]; 0.31 mg/L
  Antifungal index (mycelial growth inhibition rate): 5 (90% or greater)
[9]; 0.63 mg/L
  Antifungal index (mycelial growth inhibition rate): 5 (90% or greater)
[9]; 1.25 mg/L
  Antifungal index (mycelial growth inhibition rate): 5 (90% or greater)
